Tests used:
Type in all cases: cell-based
G-protein only [1] = assay: Fluo-4 calcium assay, G-protein only control (TAS2R44 cell line); conditions: Gα16gustducin44, ligand 10 μM
Excerpt: (§1) The following results were obtained:

human TAS2R43 = molecular target: T1, human TAS2R43 (Homo sapiens, UniProt P59537); assay: Fluo-4 calcium assay, tetracycline-inducible cells stably expressing human TAS2R43 and G16gust44; conditions: ligand 10 μM
T1 construct: expressed in transfected cells
T1 sequence (P59537 1-309): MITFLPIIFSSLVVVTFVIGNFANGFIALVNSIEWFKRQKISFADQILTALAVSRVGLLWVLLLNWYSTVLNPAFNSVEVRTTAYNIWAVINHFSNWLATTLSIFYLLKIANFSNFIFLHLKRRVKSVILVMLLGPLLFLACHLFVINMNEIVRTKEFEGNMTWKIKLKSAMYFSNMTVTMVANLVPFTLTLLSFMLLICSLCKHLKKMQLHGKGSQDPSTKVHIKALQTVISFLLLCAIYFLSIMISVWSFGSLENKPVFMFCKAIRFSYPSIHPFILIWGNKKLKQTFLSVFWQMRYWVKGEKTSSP
Excerpt: as §1

G-protein only [2] = assay: Fluo-4 calcium assay, G-protein only control (TAS2R43 cell line); conditions: Gα16gustducin44, ligand 10 μM
Excerpt: as §1

human TAS2R44 = molecular target: T2, human TAS2R44 (Homo sapiens, UniProt P59538); assay: Fluo-4 calcium assay, tetracycline-inducible cells stably expressing human TAS2R44 and G16gust44; conditions: ligand 10 μM
T2 construct: expressed in transfected cells
T2 sequence (P59538 1-309): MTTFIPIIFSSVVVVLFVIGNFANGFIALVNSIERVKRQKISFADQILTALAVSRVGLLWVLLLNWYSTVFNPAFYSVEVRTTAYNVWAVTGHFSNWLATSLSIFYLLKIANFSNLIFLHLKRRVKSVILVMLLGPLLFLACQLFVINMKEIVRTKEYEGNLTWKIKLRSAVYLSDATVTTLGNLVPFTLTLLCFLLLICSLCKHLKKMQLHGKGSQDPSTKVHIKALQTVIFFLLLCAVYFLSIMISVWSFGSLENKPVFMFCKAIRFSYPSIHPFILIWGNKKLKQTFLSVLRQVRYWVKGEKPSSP
Excerpt: as §1

Q: Which results are given for `COc1cccc2c1cc([N+](=O)[O-])c1c(C(=O)O)cc3c(c12)OCO3` [aristolochic acid]?
A: increase in mean fluorescence over baseline following ligand addition (G-protein only [1]): 5700 RFUs; increase in mean fluorescence over baseline following ligand addition (human TAS2R43; G-protein + human TAS2R43, Gα16gustducin44): 26766 RFUs; fluorescence signal (in words) (human TAS2R43; HEK293 T-Rex cells, TAS2R43, G16-gustducin 44): robust fluorescence signal; increase in mean fluorescence over baseline following ligand addition (G-protein only [2]): 3955 RFUs; increase in mean fluorescence over baseline following ligand addition (human TAS2R44; G-protein + human TAS2R44, Gα16gustducin44): 17254 RFUs; fluorescence signal (in words) (human TAS2R44; HEK293 T-Rex cells, TAS2R44, G16-gustducin 44): robust fluorescence signal
